The text below walks through data of patent US10815238B2, “Antimicrobial compounds and methods of making and using the same” (BIOVERSYS AG, priority 2013, dated 2020).

The test system of assay [1] is Staphylococcus aureus (S. aureus) 11540 strain. Briefly: Standard microdilution assay, MIC against S. aureus 11540. The assay is classed as cell-based. To be noted: S. aureus 11540 strain, standard microdilution assay, cutoff 16 micrograms/mL, read-out: MIC S. aureus. A digest of the protocol: (§1)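 Scoring as + or − used a 16 micrograms/mL cutoff on minimum inhibitory concentrations. These came from CLSI-standard microdilution, quality-controlled with reference strains tested in the same run.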

Assay [2] has as its system Eschericia coli (E. coli) strain ATCC25922. The experiment in a line: Standard microdilution assay, MIC against E. coli ATCC25922. In kind it is cell-based. To be noted: Escherichia coli; E. coli strain ATCC25922, standard microdilution assay; cutoff 16 micrograms/mL; read-out: MIC E. Coli. The method, boiled down: as §1

As to `C[C@H](N)CCCc1cc(Cl)c(F)c(-c2cc3cn(-c4ccc([C@@H]5CCC[C@@H](CCc6ncc[nH]6)N5)cc4)c(=O)nc3[nH]2)c1` [Compound 508], the MIC in assay [1] and in assay [2] was less than 16 µg/mL each time.
Turning to `C[C@H](N)CCCc1cc(Cl)c(F)c(-c2cc3cn(-c4ccc([C@@H]5CCC[C@@H](Cc6nn[nH]n6)N5)cc4)c(=O)nc3[nH]2)c1` [Compound 509], the MIC in assay [1] and in assay [2] was greater than 16 µg/mL in each case.
Regarding `C[C@H](N)CCCc1cc(Cl)c(F)c(-c2cc3cn(-c4ccc([C@@H]5CCC[C@@H](CCNC(N)=O)N5)cc4)c(=O)nc3[nH]2)c1` [Compound 510], the MIC in assay [1] and in assay [2] was greater than 16 µg/mL throughout.
As for `C[C@H](N)CCCc1cc(Cl)c(F)c(-c2cc3cn(-c4ccc([C@@H]5CCC[C@@H](CCC(N)=O)N5)cc4)c(=O)nc3[nH]2)c1` [Compound 511], the MIC in assay [1] and in assay [2] was less than 16 µg/mL each time.
Consider `C[C@H](N)CCCc1cc(Cl)c(F)c(-c2cc3cn(-c4ccc(C(=N)NCC[C@H](C)N)cc4)c(=O)nc3[nH]2)c1` [Compound 512], for which the MIC in assay [1] and in assay [2] was less than 16 µg/mL in each case.
Turning to `CNC(=O)CC[C@@H]1CCC[C@@H](c2ccc(-n3cc4cc(-c5cc(CCC[C@H](C)N)cc(Cl)c5F)[nH]c4nc3=O)cc2)N1` [Compound 513], the MIC in assay [1] and in assay [2] was greater than 16 µg/mL throughout.
Turning to `C[C@H](N)CCCc1cc(Cl)c(F)c(-c2cc3cn(-c4ccc([C@@H]5CCC[C@@H](CCC(=O)O)N5)cc4)c(=O)nc3[nH]2)c1` [Compound 514], the MIC in assay [1] and in assay [2] was greater than 16 µg/mL each time.
In the case of `C[C@H](N)CCCc1cc(Cl)c(F)c(-c2cc3cn(-c4ccc([C@@H]5CCC[C@@H](CCNC=N)N5)cc4)c(=O)nc3[nH]2)c1` [Compound 515], the MIC in assay [1] and in assay [2] was less than 16 µg/mL throughout.
As for `CC(=N)NCC[C@@H]1CCC[C@@H](c2ccc(-n3cc4cc(-c5cc(CCC[C@H](C)N)cc(Cl)c5F)[nH]c4nc3=O)cc2)N1` [Compound 516], the MIC in assay [1] and in assay [2] was less than 16 µg/mL each time.
With `CN/C(=C/[N+](=O)[O-])NCC[C@@H]1CCC[C@@H](c2ccc(-n3cc4cc(-c5cc(CCC[C@H](C)N)cc(Cl)c5F)[nH]c4nc3=O)cc2)N1` [Compound 517], the MIC in assay [1] and in assay [2] was less than 16 µg/mL throughout.
For `Cc1cc(OC[C@@H](CCNC(=N)N)NCc2ccc(-n3cc4cc(-c5cc(CCC[C@H](C)N)cc(Cl)c5F)[nH]c4nc3=O)cc2)no1` [Compound 518], the MIC in assay [1] and in assay [2] was less than 16 µg/mL each time.
`C[C@H](N)CCCc1cc(Cl)c(F)c(-c2cc3cn(-c4ccc(CN[C@@H](CCNC(=N)N)CCc5nccs5)cc4)c(=O)nc3[nH]2)c1` [Compound 519]: the minimal inhibitory concentration (MIC) in assay [1] and in assay [2] was less than 16 µg/mL each time.
With `C[C@H](N)CCCc1cccc(-c2cc3cn(-c4ccc(CNCCCNC(=N)N)cc4)c(=O)nc3[nH]2)c1` [Compound 520], the MIC in assay [1] and in assay [2] was less than 16 µg/mL in each case.
For `C[C@H](N)CCCc1cccc(-c2cc3cn(-c4ccc([C@H](C)NCCCNC(=N)N)cc4)c(=O)nc3[nH]2)c1` [Compound 521], the MIC in assay [1] and in assay [2] was less than 16 µg/mL in each case.
As for `C[C@H](N)CCCc1cc(Cl)c(F)c(-c2cc3cn(-c4ccc([C@@H]5CCO[C@@H](CCCN)C5)cc4)c(=O)nc3[nH]2)c1` [Compound 522], the MIC in assay [1] and in assay [2] was less than 16 µg/mL throughout.
As to `C[C@H](N)CCCc1cc(Cl)c(F)c(-c2cc3cn(-c4ccc([C@@H]5CCO[C@@H](CCCNC(=N)N)C5)cc4)c(=O)nc3[nH]2)c1` [Compound 523], the MIC in assay [1] and in assay [2] was less than 16 µg/mL throughout.
`C[C@H](N)CCCc1cc(Cl)c(F)c(-c2cc3cn(-c4ccc(CN[C@H](CCNC(=N)N)CNc5ncccn5)cc4)c(=O)nc3[nH]2)c1` [Compound 524]: the minimum inhibitory concentration (MIC) in assay [1] and in assay [2] was less than 16 µg/mL each time.
For the molecule `C[C@H](N)CCCc1cc(Cl)c(F)c(-c2cc3cn(-c4ccc([C@@H]5CCO[C@@H](CCN)C5)cc4)c(=O)nc3[nH]2)c1` [Compound 525], the MIC in assay [1] and in assay [2] was less than 16 µg/mL throughout.
With `C[C@H](N)CCCc1cc(Cl)c(F)c(-c2cc3cn(-c4ccc([C@@H]5CCO[C@@H](CCNC(=N)N)C5)cc4)c(=O)nc3[nH]2)c1` [Compound 526], the MIC in assay [1] and in assay [2] was less than 16 µg/mL each time.
Consider `C[C@H](N)CCCc1cc(Cl)c(F)c(-c2cc3cn(-c4ccc([C@@H]5CCC[C@@H](CCNC(=N)N)N5C)cc4)c(=O)nc3[nH]2)c1` [Compound 527], for which the MIC in assay [1] and in assay [2] was less than 16 µg/mL each time.
In the case of `C[C@H](N)CCCc1cc(Cl)c(F)c(-c2cc3cn(-c4ccc(CN[C@H](CCNC(=N)N)CCc5nccs5)cc4)c(=O)nc3[nH]2)c1` [Compound 528], the MIC in assay [1] and in assay [2] was less than 16 µg/mL in each case.
For the molecule `C[C@H](N)CCCc1cc(Cl)c(F)c(-c2cc3cn(-c4ccc([C@@H]5CCC[C@@H](Cc6ncc(N)s6)N5)cc4)c(=O)nc3[nH]2)c1` [Compound 529], the MIC in assay [1] and in assay [2] was greater than 16 µg/mL each time.
In the case of `C[C@H](N)CCCc1cc(Cl)c(F)c(-c2cc3cn(-c4ccc([C@@H]5CCC[C@@H](CCn6cccn6)N5)cc4)c(=O)nc3[nH]2)c1` [Compound 530], the MIC in assay [1] and in assay [2] was greater than 16 µg/mL in each case.
Consider `C[C@H](N)CCCc1cccc(-c2cc3cn(-c4ccc([C@@H]5CCC[C@@H](CCNC(=N)N)N5)cc4)c(=O)nc3[nH]2)c1` [Compound 531], for which the minimal inhibitory concentration (MIC) in assay [1] and in assay [2] was less than 16 µg/mL throughout.
Consider `C[C@H](N)CCCc1cc(Cl)c(F)c(-c2cc3cn(-c4ccc([C@@H]5CCC[C@@H](CCC6CC6)N5)cc4)c(=O)nc3[nH]2)c1` [Compound 532], for which the figures for the MIC in assay [1] and in assay [2] were less than 16 µg/mL and greater than 16 µg/mL, respectively.
Regarding `C[C@H](N)CCCc1cc(Cl)c(F)c(-c2cc3cn(-c4ccc([C@@H]5CCC[C@@H](CCn6ccnc6)N5)cc4)c(=O)nc3[nH]2)c1` [Compound 533], the MIC in assay [1] and in assay [2] was less than 16 µg/mL each time.
Turning to `C[C@H](N)CCCc1cc(Cl)c(F)c(-c2cc3cn(-c4ccc(CO[C@H](CCNC(=N)N)CNc5nccs5)cc4)c(=O)nc3[nH]2)c1` [Compound 534], the MIC in assay [1] and in assay [2] was less than 16 µg/mL in each case.
`C[C@H](N)CCCc1cc(Cl)c(F)c(-c2cc3cn(-c4ccc([C@@H]5CCC[C@@H](CCNc6nccs6)N5)cc4)c(=O)nc3[nH]2)c1` [Compound 535]: the minimum inhibitory concentration (MIC) in assay [1] is less than 16 µg/mL; in assay [2], greater than 16 µg/mL.
Regarding `C[C@H](N)CCCc1cc(Cl)c(F)c(-c2cc3cn(-c4ccc(CN[C@H](CCNC(=N)N)CNc5ncc[nH]5)cc4)c(=O)nc3[nH]2)c1` [Compound 536], the minimum inhibitory concentration (MIC) in assay [1] and in assay [2] was less than 16 µg/mL in each case.
Take `C[C@H](N)CCCc1cc(Cl)c(F)c(-c2cc3cn(-c4ccc(CN[C@H](CCN)CNc5ncc[nH]5)cc4)c(=O)nc3[nH]2)c1` [Compound 537]: the MIC in assay [1] and in assay [2] was less than 16 µg/mL throughout.
In the case of `C[C@H](N)CCCc1cc(Cl)c(F)c(-c2cc3cn(-c4ccc([C@@H]5CCC[C@@H](Cc6cnc(N)s6)N5)cc4)c(=O)nc3[nH]2)c1` [Compound 538], the figures for the MIC in assay [1] and in assay [2] were less than 16 µg/mL and greater than 16 µg/mL, respectively.
The like results for `C[C@H](N)CCCc1cc(Cl)c(F)c(-c2cc3cn(-c4ccc([C@@H]5CCC[C@@H](Cn6cn[nH]c6=O)N5)cc4)c(=O)nc3[nH]2)c1` [Compound 539] were, in that order, greater than 16 µg/mL and greater than 16 µg/mL.
The like results for `C[C@H](N)CCCc1cc(Cl)c(F)c(-c2cc3cn(-c4ccc([C@@H]5CCC[C@@H](CNC(=N)N)N5)cc4)c(=O)nc3[nH]2)c1` [Compound 540] were, in that order, less than 16 µg/mL and less than 16 µg/mL.
The like results for `C[C@H](N)CCCc1cc(Cl)c(F)c(-c2cc3cn(-c4ccc([C@H]5CCC[C@H](CCNC6=NCCN6)N5)cc4)c(=O)nc3[nH]2)c1` [Compound 541] were, in that order, less than 16 µg/mL and less than 16 µg/mL.
`C[C@H](N)CCCc1cc(Cl)c(F)c(-c2cc3cn(-c4ccc([C@H]5CCC[C@H](CCNc6ncc[nH]6)N5)cc4)c(=O)nc3[nH]2)c1` [Compound 542]: the MIC in assay [1] and in assay [2] was less than 16 µg/mL in each case.
Take `C[C@H](N)CCCc1cc(Cl)c(F)c(-c2cc3cn(-c4ccc([C@@H]5CCC[C@@H](CCc6c[nH]nn6)N5)cc4)c(=O)nc3[nH]2)c1` [Compound 543]: the MIC in assay [1] and in assay [2] was greater than 16 µg/mL each time.
Consider `C[C@H](N)CCCc1cc(Cl)c(F)c(-c2cc3cn(-c4ccc(CN[C@H](CCNC(=N)N)CNS(C)(=O)=O)cc4)c(=O)nc3[nH]2)c1` [Compound 544], for which the MIC in assay [1] and in assay [2] was less than 16 µg/mL throughout.
`C[C@H](N)CCCc1cc(Cl)c(F)c(-c2cc3cn(-c4ccc([C@@H]5CCC[C@@H](CCn6ncoc6=O)N5)cc4)c(=O)nc3[nH]2)c1` [Compound 545]: the MIC in assay [1] and in assay [2] was greater than 16 µg/mL in each case.
As for `C[C@H](N)CCCc1cc(Cl)c(F)c(-c2cc3cn(-c4ccc([C@@H]5CCC[C@@H](CCc6nccs6)N5)cc4)c(=O)nc3[nH]2)c1` [Compound 546], the MIC in assay [1] is less than 16 µg/mL; in assay [2] it was greater than 16 µg/mL.
The like results for `C[C@H](N)CCCc1cc(Cl)c(F)c(-c2cc3cn(-c4ccc([C@@H]5CCC[C@@H](CCn6cnc([N+](=O)[O-])c6)N5)cc4)c(=O)nc3[nH]2)c1` [Compound 548] were, in that order, less than 16 µg/mL and greater than 16 µg/mL.
As for `C[C@H](N)CCCc1cc(Cl)c(F)c(-c2cc3cn(-c4ccc([C@@H]5CCC[C@@H](CCc6c[nH]cn6)N5)cc4)c(=O)nc3[nH]2)c1` [Compound 549], the MIC in assay [1] and in assay [2] was less than 16 µg/mL in each case.
In the case of `C[C@H](N)CCCc1cc(Cl)c(F)c(-c2cc3cn(-c4ccc([C@@H]5CCC[C@@H](CNCC6CCOCC6)N5)cc4)c(=O)nc3[nH]2)c1` [Compound 550], the MIC in assay [1] and in assay [2] was greater than 16 µg/mL throughout.
